Here are results for eleven compounds from PMC8762706, “Design of Coibamide A Mimetics with Improved Cellular Bioactivity” (ACS Medicinal Chemistry Letters, 2021).

Where a SMILES comes first, the peptide text is derived from it. Bridges are numbered along the chain shown (N, C = ends). [ ]: non-standard residue; d: D form. The star is where a group is joined. Phe(4-N3) = [N-]=[N+]=Nc1ccc(C[C@H](N)C(=O)O)cc1; Phe(4-CF3) = N[C@@H](Cc1ccc(C(F)(F)F)cc1)C(=O)O; Bip = N[C@@H](Cc1ccc(-c2ccccc2)cc1)C(=O)O; Phe(4-CN) = N#Cc1ccc(C[C@H](N)C(=O)O)cc1; 2Nal = N[C@@H](Cc1ccc2ccccc2c1)C(=O)O; NMe2Val = CC(C)[C@@H](C(=O)*)N(C)C; NMeLys(Me) = CNCCCC[C@H](NC)C(=O)O; NMeI = CC[C@H](C)[C@H](NC)C(=O)O; NMeT = CN[C@H](C(=O)O)[C@@H](C)O; NMeL = CN[C@@H](CC(C)C)C(=O)O; dNMeOrn = CN[C@H](CCCN)C(=O)O; dNMeK = CN[C@H](CCCCN)C(=O)O; dHiv = CC(C)[C@@H](O)C(=O)O; NMeS = CN[C@@H](CO)C(=O)O; NMeA = CN[C@@H](C)C(=O)O; dNMeA = CN[C@H](C)C(=O)O; CF3 = FC(F)(F)*; tBu = CC(C)(C)* Where only a bound is given, the exact number is not on record here.

For one data set, the system named is A549 cells. The data set is described as follows: Growth inhibition assay (MTS) in A549 cells. In kind it is cell-based. The settings on record: ratio of IC50 values to 1. The protocol:
Growth Inhibition AssayS3
A549 cells were cultured in Dulbecco’s modified Eagle’s medium (DMEM; Sigma) supplemented with 10% (v/v) fetal bovine serum at 37 °C in a 5% CO2-incubator. Growth inhibition assays using A549 cells were performed in 96-well plates (BD Falcon). A549 cells were seeded at 1000 cells/well in 90 μL of culture media, respectively, and were cultured for 24 h. Chemical compounds in DMSO were diluted 50-fold with the culture medium in advance. 30 μL of the chemical diluents were added.
The final volume of DMSO in the medium was equal to 0.5% (v/v). The cells under chemical treatment were incubated for a further 72 h. The wells in the plates were washed twice with the cultured medium without phenol-red. After 1-hour incubation with 100 μL of the medium, the cell culture in each well was supplemented with 20 μL of the MTS reagent (Promega), followed by incubation for additional 40 min. Absorbance at 490 nm of each well was measured using a Wallac 1420 ARVO SX multilabel counter (Perkin Elmer). Three experiments were performed per condition and the averages of inhibition rates in each condition were evaluated to determine IC50 values using the GraphPad Prism software.
Take `CC[C@H](C)[C@H]1C(=O)N[C@@H](C)C(=O)N(C)[C@@H](CC(C)C)C(=O)N[C@@H](Cc2ccc(-c3ccccc3)cc2)C(=O)N(C)[C@H](C)C(=O)O[C@H](C)[C@H](N(C)C(=O)[C@H](CC(C)C)N(C)C(=O)[C@H](C)N(C)C(=O)[C@H](OC(=O)[C@H](C(C)C)N(C)C)C(C)C)C(=O)N(C)[C@@H](C)C(=O)N1C` [compound 12, [MeAla^3, MeAla^6, Bph^10]-CbA] (NMe2Val-[dHiv][NMeA][NMeL][NMeT][NMeA][NMeI]A[NMeL][Bip][dNMeA]; ester 4-C): the “fold more potent cytotoxicity than 1 (coibamide A)” value is listed as 5.6 fold.

The same data set, now with this note: read-out: IC50 (concentration for 50% growth inhibition of A549 cells), MTS assay, 72 h treatment, 0.5% DMSO, absorbance 490 nm, n = 3.
For `CC[C@H](C)[C@H]1C(=O)N[C@@H](C)C(=O)N(C)[C@@H](CC(C)C)C(=O)N[C@@H](Cc2ccc(C#N)cc2)C(=O)N(C)CCCC[C@H](N(C)C(=O)[C@H](CC(C)C)N(C)C(=O)[C@H](C)N(C)C(=O)[C@H](OC(=O)[C@H](C(C)C)N(C)C)C(C)C)C(=O)N(C)[C@@H](C)C(=O)N1C` [10d] (NMe2Val-[dHiv][NMeA][NMeL][NMeLys(Me)][NMeA][NMeI]A[NMeL][Phe(4-CN)]; lactam 4-C), the IC50 worked out at 1500 ± 500 nM.

As for `CC[C@H](C)[C@H]1C(=O)N[C@@H](C)C(=O)N(C)[C@@H](CC(C)C)C(=O)N[C@@H](Cc2ccc(C(F)(F)F)cc2)C(=O)N(C)CCCC[C@H](N(C)C(=O)[C@H](CC(C)C)N(C)C(=O)[C@H](C)N(C)C(=O)[C@H](OC(=O)[C@H](C(C)C)N(C)C)C(C)C)C(=O)N(C)[C@@H](C)C(=O)N1C` [10c] (NMe2Val-[dHiv][NMeA][NMeL][NMeLys(Me)][NMeA][NMeI]A[NMeL][Phe(4-CF3)]; lactam 4-C), the IC50 came to 370 ± 70 nM.

Take `CC[C@H](C)[C@H]1C(=O)N[C@@H](C)C(=O)N(C)[C@@H](CC(C)C)C(=O)N[C@@H](Cc2ccc(OC(C)(C)C)cc2)C(=O)N(C)CCCC[C@H](N(C)C(=O)[C@H](CC(C)C)N(C)C(=O)[C@H](C)N(C)C(=O)[C@H](OC(=O)[C@H](C(C)C)N(C)C)C(C)C)C(=O)N(C)[C@@H](C)C(=O)N1C` [10h] (NMe2Val-[dHiv][NMeA][NMeL][NMeLys(Me)][NMeA][NMeI]A[NMeL]Y(tBu); lactam 4-C): the IC50 was 1000 ± 100 nM.

On to `CC[C@H](C)[C@H]1C(=O)N[C@@H](C)C(=O)N(C)[C@@H](CC(C)C)C(=O)N[C@@H](Cc2ccc(OC)cc2)C(=O)N(C)CCC[C@@H](N(C)C(=O)[C@H](CC(C)C)N(C)C(=O)[C@H](C)N(C)C(=O)[C@H](OC(=O)[C@H](C(C)C)N(C)C)C(C)C)C(=O)N(C)[C@@H](C)C(=O)N1C` [2d], for which the IC50 is over 10000 nM.

For `CC[C@H](C)[C@H]1C(=O)N[C@@H](C)C(=O)N(C)[C@@H](CC(C)C)C(=O)N[C@@H](Cc2ccc3ccccc3c2)C(=O)N(C)CCCC[C@H](N(C)C(=O)[C@H](CC(C)C)N(C)C(=O)[C@H](C)N(C)C(=O)[C@H](OC(=O)[C@H](C(C)C)N(C)C)C(C)C)C(=O)N(C)[C@@H](C)C(=O)N1C` [10q] (NMe2Val-[dHiv][NMeA][NMeL][NMeLys(Me)][NMeA][NMeI]A[NMeL][2Nal]; lactam 4-C), the IC50 was 280 ± 30 nM.

As for `CC[C@H](C)[C@H]1C(=O)N[C@@H](C)C(=O)N(C)[C@@H](CC(C)C)C(=O)N[C@@H](Cc2ccc(OC(F)(F)F)cc2)C(=O)N(C)CCCC[C@H](N(C)C(=O)[C@H](CC(C)C)N(C)C(=O)[C@H](C)N(C)C(=O)[C@H](OC(=O)[C@H](C(C)C)N(C)C)C(C)C)C(=O)N(C)[C@@H](C)C(=O)N1C` [10i] (NMe2Val-[dHiv][NMeA][NMeL][NMeLys(Me)][NMeA][NMeI]A[NMeL]Y(CF3); lactam 4-C), the IC50 is 320 ± 30 nM.

On to `CC[C@H](C)[C@H]1C(=O)N[C@@H](C)C(=O)N(C)[C@@H](CC(C)C)C(=O)N[C@@H](Cc2ccc(OC)cc2)C(=O)NCCCC[C@@H](N(C)C(=O)[C@H](CC(C)C)N(C)C(=O)[C@H](C)N(C)C(=O)[C@H](OC(=O)[C@H](C(C)C)N(C)C)C(C)C)C(=O)N(C)[C@@H](C)C(=O)N1C` [2f] (NMe2Val-[dHiv][NMeA][NMeL][dNMeK][NMeA][NMeI]A[NMeL]Y(Me); lactam 4-C), for which the IC50 is over 10000 nM.

In the case of `CC[C@H](C)[C@H]1C(=O)N[C@@H](C)C(=O)N(C)[C@@H](CC(C)C)C(=O)N[C@@H](Cc2ccc(N=[N+]=[N-])cc2)C(=O)N(C)CCCC[C@H](N(C)C(=O)[C@H](CC(C)C)N(C)C(=O)[C@H](C)N(C)C(=O)[C@H](OC(=O)[C@H](C(C)C)N(C)C)C(C)C)C(=O)N(C)[C@@H](C)C(=O)N1C` [10e] (NMe2Val-[dHiv][NMeA][NMeL][NMeLys(Me)][NMeA][NMeI]A[NMeL][Phe(4-N3)]; lactam 4-C), the IC50 worked out at 380 ± 50 nM.

As to `CC[C@H](C)[C@H]1C(=O)N[C@@H](C)C(=O)N(C)[C@@H](CC(C)C)C(=O)N[C@@H](Cc2ccc(OC)cc2)C(=O)NCCC[C@@H](N(C)C(=O)[C@H](CC(C)C)N(C)C(=O)[C@H](C)N(C)C(=O)[C@H](OC(=O)[C@H](C(C)C)N(C)C)C(C)C)C(=O)N(C)[C@@H](C)C(=O)N1C` [2h] (NMe2Val-[dHiv][NMeA][NMeL][dNMeOrn][NMeA][NMeI]A[NMeL]Y(Me); lactam 4-C), the IC50 was over 10000 nM.

Staying with this data set, now noted: read-out: IC50 (concentration for 50% growth inhibition of A549 cells), MTS assay, 72 h treatment, n = 3.
On to `CC[C@H](C)[C@H]1C(=O)N[C@@H](C)C(=O)N(C)[C@@H](CC(C)C)C(=O)N[C@@H](Cc2ccc(-c3ccccc3)cc2)C(=O)N(C)[C@H](C)C(=O)O[C@H](C)[C@H](N(C)C(=O)[C@H](CC(C)C)N(C)C(=O)[C@H](C)N(C)C(=O)[C@H](OC(=O)[C@H](C(C)C)N(C)C)C(C)C)C(=O)N(C)[C@@H](C)C(=O)N1C` [compound 12, [MeAla^3, MeAla^6, Bph^10]-CbA] (NMe2Val-[dHiv][NMeA][NMeL][NMeT][NMeA][NMeI]A[NMeL][Bip][dNMeA]; ester 4-C), for which the IC50 is 0.25 nM.

For the compound `CC[C@H](C)[C@H]1C(=O)N[C@@H](C)C(=O)N(C)[C@@H](CC(C)C)C(=O)N[C@@H](Cc2ccc(OC)cc2)C(=O)N(C)[C@H](C)C(=O)O[C@H](C)[C@H](N(C)C(=O)[C@H](CC(C)C)N(C)C(=O)[C@H](COC)N(C)C(=O)[C@H](OC(=O)[C@H](C(C)C)N(C)C)C(C)C)C(=O)N(C)[C@@H](COC)C(=O)N1C` [coibamide A] (NMe2Val-[dHiv][NMeS](Me)[NMeL][NMeT][NMeS](Me)[NMeI]A[NMeL]Y(Me)[dNMeA]; ester 4-C), the IC50 was found to be 1.4 ± 0.4 nM.
